Data reported in US6362212B1, “Oxime derivative and bactericide containing the same as active ingredient” (Shionogi & Company, Ltd., priority 1994, dated 2002).

Legend:
Format in all cases: in vivo
[1] = test system: Botrytis cinerea; assay: Controlling effect on Botrytis cinerea by foliage application (pot experiment); conditions: foliage spray on cucumber (cv. TSUKUBASHIROIBO) first leaves, mycelial disks, lesion diameter after 3 days in moist chamber at 20° C.
Experimental: The following Test Examples illustrate the effects of the fungicide of the present invention. (I. Controlling effects on various plant diseases by foliage application (pot experiment)) A test compound was dissolved in a small amount of N,N-dimethylformamide, and the solution was diluted to a given concentration with distilled water containing a spreader. Thus, a liquid sample to be tested was prepared. The liquid sample was sprayed to test plants, and 24 hours thereafter, pathogens were inoculated by the method described below. […] The seeds of cucumber ([…]) were sown in plastic cups (each 9 cm in diameter), followed by cultivation for 2 to 3 weeks. The test compound in the form of a solution or suspension was sprayed to the surface of their first leaves, and mycelial disks (4 mm φ) of Botrytis cinerea cultured on the potato sucrose agar medium were put on the leaf surfaces to inoculate. the cucumber seedlings with the pathogen. The plants were kept in a moist chamber at 20° C. for 3 days. The diameter of the lesions on the leaves was measured and the percent control was calculated.

[2] = test system: Erysiphe graminis f. sp. tritici; assay: Controlling effect on Erysiphe graminis f. sp. tritici by foliage application (pot experiment); conditions: foliage spray on wheat (cv. NORIN No. 61) seedlings, infected area after 10 days in greenhouse at 20° C.
In short: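 Wheat seedlings (cv. NORIN No. 61, 2-3 weeks old) sprayed with compound in DMF diluted in water with spreader, then inoculated with conidia 24 hours later. Kept in greenhouse at 20 °C for 10 days; percent control calculated from infected leaf area.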

[3] = test system: Pseudoperonospora cubensis; assay: Controlling effect on Pseudoperonospora cubensis by foliage application (pot experiment); conditions: foliage spray on cucumber (var. TSUKUBASHIROIBO) first leaves, lesion area after 10 days in moist chamber at 20° C.
In short: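 Cucumber plants grown 2–3 weeks were sprayed on first leaves with compound (DMF solution diluted in water with spreader); 24 h later, Pseudoperonospora cubensis zoosporangia suspension dropped on leaves. Plants held in moist chamber at 20° C for 10 days; lesion area observed and percent control calculated.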

[4] = test system: Sphaerotheca fuliginea; assay: Controlling effect on Sphaerotheca fuliginea by foliage application (pot experiment); conditions: foliage spray on cucumber (cv. TSUKUBASHIROIBO) first leaves, infected area after 10 days in greenhouse at 20° C.
In short: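 First leaves of cucumber seedlings, 2-3 weeks old, were sprayed with compound (DMF solution diluted in water with spreader). They were inoculated 24 h later with a Sphaerotheca fuliginea conidia spray and kept 10 days at 20° C in a greenhouse. Percent control was calculated from infected leaf area.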

[5] = test system: Pyricularia oryzae; conditions: foliage spray on rice seedlings (cv. […]), number of lesions six days after the inoculation
[6] = test system: Puccinia coronata; assay: Controlling effect on Puccinia coronata by foliage application (pot experiment); conditions: foliage spray on oat (cv. PC-38) seedlings, infected area after 1 day moist chamber and 8 days greenhouse at 20° C.
Experimental: The following Test Examples illustrate the effects of the fungicide of the present invention. (I. Controlling effects on various plant diseases by foliage application (pot experiment)) A test compound was dissolved in a small amount of N,N-dimethylformamide, and the solution was diluted to a given concentration with distilled water containing a spreader. Thus, a liquid sample to be tested was prepared. The liquid sample was sprayed to test plants, and 24 hours thereafter, pathogens were inoculated by the method described below. […] The seeds of oat (cv.: PC-38) were sown in plastic cups (each 9 cm in diameter), followed by cultivation for 2 to 3 weeks. The test compound in the form of a solution or suspension was sprayed to the seedlings. Spores of Puccinia coronata cultured on oat leaves were collected, diluted about 10-fold with talc, and sprayed to the test plants to inoculate the plants with the pathogen. After the inoculation, the plants were kept in a moist chamber at 20° C. for 1 day and then in a greenhouse at 20° C. for 8 days. The infected area on the leaf was observed, and the percent control was calculated.

Row | SMILES | Controlling effect on Botrytis cinerea by foliage application at 500 ppm (percent control) [1] [percent control] | Controlling effect on ErYsiphe graminis f. sp. tritici by foliage application at 500 ppm (percent control) [2] [percent control] | Controlling effect on Pseudoperonospora cubensis by foliage application at 500 ppm (percent control) [3] [percent control] | Controlling effect on Sphaerotheca fuliginea by foliage application at 500 ppm (percent control) [4] [percent control] | Controlling effect on PYricularia orYzae by foliage application at 500 ppm (percent control) [5] [percent control] | Controllng effect on Puccinia coronata by foliage application at 500 ppm (percent control) [6] [percent control] | pest or weed control at 500 ppm ([2]; Blumeria graminis, foliar, 240 h, read-out: Controlling effect on ErYsiphe graminis f. sp. tritici by foliage application at 500 ppm (percent control)) [%] | pest or weed control at 500 ppm ([4]; Podosphaera fuliginea, in Cucumis sativus, foliar, 240 h, read-out: Controlling effect on Sphaerotheca fuliginea by foliage application at 500 ppm (percent control)) [%]
1 | CON=C(c1cc(C)no1)c1ccccc1COc1ccc(Cl)cc1 (single isomer, unassigned) [607A] | 70 | 90 | 97 | 90 | 90 | – | – | –
2 | CON=C(c1ccccc1COc1ccccc1)n1ccnc1 [Compound No. 1] | 100 | 90 | – | 100 | 90 | 97 | – | –
3 | CON=C(c1ccccc1COc1ccccc1Cl)n1ccnc1 [Compound No. 5] | 70 | 90 | – | 100 | 97 | 90 | – | –
4 | CON=C(c1ccccc1COc1ccc(Cl)cc1)n1ccnc1 [Compound No. 7] | 100 | 100 | – | 100 | 97 | 97 | – | –
5 | CON=C(c1ccccc1COc1ccccc1C)n1ccnc1 [Compound No. 13] | 70 | 90 | – | 100 | 90 | 97 | – | –
6 | CON=C(c1ccccc1COc1ccc(C)cc1)n1ccnc1 [Compound No. 15] | 100 | 97 | – | 100 | 90 | 100 | – | –
7 | CCON=C(c1ccccc1COc1ccccc1)n1ccnc1 [Compound No. 61] | 100 | 97 | – | – | 97 | 97 | – | –
8 | C=CCON=C(c1ccccc1COc1ccccc1)n1ccnc1 [Compound No. 81] | 90 | 97 | – | – | 97 | 97 | – | –
9 | OC(c1ccc(Cl)cc1)(c1cncnc1)c1ccccc1Cl (stereo not shown) [Fenarimol, reference compound] | 97 | – | – | – | – | 97 | 97 | 97
10 | CON=C(c1ccccc1COc1c(C)cccc1C)n1ccnc1 [compound 40] | 70 | 97 | – | 100 | 90 | 70 | – | –
11 | CON=C(c1ccccc1COc1ccccc1)n1cncc1C [compound 201] | 70 | 90 | – | 100 | 90 | 90 | – | –
12 | CON=C(c1ccccc1COc1ccccc1Cl)n1cncc1C [compound 205] | 70 | – | – | 100 | 90 | 70 | – | –
13 | CON=C(c1ccccc1COc1cccc(Cl)c1)n1cncc1C [compound 206] | 97 | 90 | – | 100 | 90 | 97 | – | –
14 | CON=C(c1ccccc1COc1ccc(Cl)cc1)n1cncc1C [compound 207] | 100 | 100 | – | 100 | 90 | 97 | – | –
15 | CON=C(c1nnco1)c1ccccc1COc1cccc(C)c1 [compound 713] | 70 | 90 | 100 | 100 | 97 | – | – | –
16 | CON=C(c1nnco1)c1ccccc1COc1ccc(Cl)c(Cl)c1 [compound 732] | 70 | 70 | 100 | 100 | 70 | – | – | –
